# Measured values: ChEMBL document CHEMBL1201862, “PubChem BioAssay data set” (2004)
#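 Results reflect a 48-hour exposure of cells in 96-well plates to compound at five concentrations. GI50: concentration for 50% inhibition of growth.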 The source made the active and inactive calls. Rule as the data show it: active = GI50 up to about 1.1 µM and inactive = higher.
# Key:
# Test in all cases: inhibition of tumour cell growth, NCI panel, 48 h
# SN12C = system: SN12C
# IGROV-1 = system: IGROV-1
# SNB-75 = system: SNB-75
# SW-620 = system: SW-620
# MDA-N = system: MDA-N
# MDA-MB-231 = system: MDA-MB-231
# SF-268 = system: SF-268
# DU-145 = system: DU-145
# PC-3 = system: PC-3
# BT-549 = system: BT-549
# HCT-15 = system: HCT-15
# UACC-62 = system: UACC-62
# HCT-116 = system: HCT-116
# RPMI-8226 = system: RPMI-8226
# OVCAR-3 = system: OVCAR-3
# A549 = system: A549
# A498 = system: A498
# 786-0 = system: 786-0
# HOP-62 = system: HOP-62
# SK-MEL-28 = system: SK-MEL-28
# MDA-MB-435 = system: MDA-MB-435
# HL-60 = system: HL-60
# NCI-H460 = system: NCI-H460
# HT-29 = system: HT-29
# SNB-19 = system: SNB-19
# CAKI-1 = system: CAKI-1
# NCI/ADR-RES = system: NCI/ADR-RES
# CCRF-CEM = system: CCRF-CEM
# HOP-92 = system: HOP-92
# TK-10 = system: TK-10
# COLO 205 = system: COLO 205
# UACC-257 = system: UACC-257
# ACHN = system: ACHN
# NCI-H226 = system: NCI-H226
# SK-MEL-5 = system: SK-MEL-5
# OVCAR-4 = system: OVCAR-4
# LOX IMVI = system: LOX IMVI
# SK-MEL-2 = system: SK-MEL-2
# EKVX = system: EKVX
# RXF 393 = system: RXF 393
# SF-539 = system: SF-539
# SR = system: SR
# OVCAR-8 = system: OVCAR-8
# M14 = system: M14
# KM12 = system: KM12
# MCF7 = system: MCF7
# MOLT-4 = system: MOLT-4
# SF-295 = system: SF-295
# NCI-H23 = system: NCI-H23
# Hs-578T = system: Hs-578T
# SK-OV-3 = system: SK-OV-3
# U-251 = system: U-251
# OVCAR-5 = system: OVCAR-5
# NCI-H522 = system: NCI-H522
# UO-31 = system: UO-31
# Malme-3M = system: Malme-3M
# T47D = system: T47D
# K562 = system: K562
# HCC 2998 = system: HCC 2998
compound,measurement,setting,value
NCCSC(c1ccccc1)c1ccccc1,GI50,SN12C,35.5 µM (inactive)
same,GI50,IGROV-1,13.1 µM (inactive)
same,GI50,SNB-75,24.5 µM (inactive)
same,GI50,SW-620,18.5 µM (inactive)
same,GI50,MDA-N,18.7 µM (inactive)
same,GI50,MDA-MB-231,18.6 µM (inactive)
same,GI50,SF-268,26.6 µM (inactive)
same,GI50,DU-145,29.2 µM (inactive)
same,GI50,PC-3,21.8 µM (inactive)
same,GI50,BT-549,43.8 µM (inactive)
same,GI50,HCT-15,33.2 µM
same,GI50,UACC-62,17 µM (inactive)
same,GI50,HCT-116,16.7 µM (inactive)
same,GI50,RPMI-8226,16 µM (inactive)
same,GI50,OVCAR-3,19.1 µM (inactive)
same,GI50,A549,39.3 µM (inactive)
same,GI50,A498,22.4 µM (inactive)
same,GI50,786-0,17.5 µM (inactive)
same,GI50,HOP-62,17.5 µM (inactive)
same,GI50,SK-MEL-28,18.6 µM (inactive)
same,GI50,MDA-MB-435,19.1 µM (inactive)
same,GI50,HL-60,314 nM (active)
same,GI50,NCI-H460,15.1 µM (inactive)
same,GI50,HT-29,17.7 µM (inactive)
same,GI50,SNB-19,51.9 µM (inactive)
same,GI50,CAKI-1,24.9 µM (inactive)
same,GI50,NCI/ADR-RES,31.3 µM (inactive)
same,GI50,CCRF-CEM,32.6 µM (inactive)
same,GI50,HOP-92,10.6 µM (inactive)
same,GI50,TK-10,16.9 µM (inactive)
same,GI50,COLO 205,23.7 µM (inactive)
same,GI50,UACC-257,16.3 µM (inactive)
same,GI50,ACHN,31.8 µM (inactive)
same,GI50,NCI-H226,31.2 µM (inactive)
same,GI50,SK-MEL-5,16.7 µM (inactive)
same,GI50,OVCAR-4,20.4 µM (inactive)
same,GI50,LOX IMVI,16.3 µM (inactive)
same,GI50,SK-MEL-2,18.4 µM (inactive)
same,GI50,EKVX,30.7 µM (inactive)
same,GI50,RXF 393,17.7 µM (inactive)
same,GI50,SF-539,20.7 µM (inactive)
same,GI50,SR,17.6 µM (inactive)
same,GI50,OVCAR-8,20.6 µM (inactive)
same,GI50,M14,14.7 µM (inactive)
same,GI50,KM12,19.7 µM (inactive)
same,GI50,MCF7,19.3 µM (inactive)
same,GI50,MOLT-4,15.7 µM (inactive)
same,GI50,SF-295,18.2 µM (inactive)
same,GI50,NCI-H23,37.2 µM (inactive)
same,GI50,Hs-578T,24.2 µM (inactive)
same,GI50,SK-OV-3,22.5 µM (inactive)
same,GI50,U-251,18.2 µM (inactive)
same,GI50,OVCAR-5,17.2 µM (inactive)
same,GI50,NCI-H522,19.1 µM (inactive)
same,GI50,UO-31,15 µM (inactive)
same,GI50,Malme-3M,19.5 µM (inactive)
CC1=C(C#N)C23C(=O)c4ccccc4C(=O)C2=C(O)C=CC3(O)N1 (centres undefined),GI50,SN12C,2.24 µM (inactive)
same,GI50,IGROV-1,2.38 µM (inactive)
same,GI50,SNB-75,2.3 µM (inactive)
same,GI50,SW-620,0.553 µM (active)
same,GI50,MDA-N,1.53 µM (inactive)
same,GI50,MDA-MB-231,8.83 µM (inactive)
same,GI50,SF-268,6.61 µM (inactive)
same,GI50,DU-145,2.98 µM (inactive)
same,GI50,PC-3,4.57 µM (inactive)
same,GI50,BT-549,1.13 µM (inactive)
same,GI50,HCT-15,2.44 µM
same,GI50,UACC-62,2.52 µM (inactive)
same,GI50,HCT-116,5.68 µM (inactive)
same,GI50,RPMI-8226,0.658 µM (active)
same,GI50,T47D,7.4 µM (inactive)
same,GI50,OVCAR-3,0.861 µM (active)
same,GI50,A549,1.67 µM (inactive)
same,GI50,A498,21 µM (inactive)
same,GI50,786-0,2.2 µM (inactive)
same,GI50,HOP-62,5.4 µM (inactive)
same,GI50,SK-MEL-28,2.51 µM (inactive)
same,GI50,K562,1.15 µM (inactive)
same,GI50,MDA-MB-435,2.81 µM (inactive)
same,GI50,HL-60,313 nM (active)
same,GI50,NCI-H460,5.46 µM (inactive)
same,GI50,HT-29,1.23 µM (inactive)
same,GI50,SNB-19,4.33 µM (inactive)
same,GI50,CAKI-1,4.06 µM (inactive)
same,GI50,NCI/ADR-RES,7.83 µM (inactive)
same,GI50,CCRF-CEM,0.365 µM (active)
same,GI50,HOP-92,2.12 µM (inactive)
same,GI50,TK-10,14.3 µM (inactive)
same,GI50,COLO 205,2.03 µM (inactive)
same,GI50,HCC 2998,4.02 µM (inactive)
same,GI50,UACC-257,2.07 µM (inactive)
same,GI50,ACHN,1.53 µM (inactive)
same,GI50,NCI-H226,15.7 µM (inactive)
same,GI50,SK-MEL-5,1.06 µM (active)
same,GI50,OVCAR-4,1.97 µM (inactive)
same,GI50,LOX IMVI,0.512 µM (active)
same,GI50,SK-MEL-2,4.4 µM (inactive)
same,GI50,EKVX,5.82 µM (inactive)
same,GI50,RXF 393,3.8 µM (inactive)
same,GI50,SF-539,2.86 µM (inactive)
same,GI50,SR,0.269 µM (active)
same,GI50,OVCAR-8,5.09 µM (inactive)
same,GI50,M14,2.19 µM (inactive)
same,GI50,KM12,9.08 µM (inactive)
same,GI50,MCF7,0.597 µM (active)
same,GI50,MOLT-4,0.484 µM (active)
same,GI50,SF-295,13.6 µM (inactive)
same,GI50,NCI-H23,3.84 µM (inactive)
same,GI50,SK-OV-3,52 µM (inactive)
same,GI50,U-251,8.39 µM (inactive)
same,GI50,OVCAR-5,4.76 µM (inactive)
same,GI50,NCI-H522,1.48 µM (inactive)
same,GI50,UO-31,2.37 µM (inactive)
same,GI50,Malme-3M,1.78 µM (inactive)
